Reference: US7902254B1, “Method for treating conditions mediated by PPAR using macelignan” (Newtree Co., Ltd., priority 2005, dated 2011)

Columns and labels:
[1] = system: 3T3-L1 mouse pre-adipocytes; assay: Stimulation of adipocyte differentiation; format: cell-based; conditions: 10 μM, 3T3-L1, vs 0.01% DMSO control and 10 μM troglitazone
Experimental: 3T3-L1 mouse pre-adipocytes cultured in a DMEM medium containing 10% FBS were pipetted into a multi-well plate in a cell count of 1×10^6 cells per well, and then further cultured for 5 hours. To the cultured cells, 10 μM of macelignan was added and then left for 24 hours. Adipocyte differentiation was induced by substituting the medium of the cultured cells with MDI (0.5 mM 3-isobutyl-1-methylxanthine, 0.5 uM dexamethasone, 10 ug/ml insulin) medium (Am. J. Physiol. Cell Physiol., 280: C807-C813, 2001). The shape of the cells was observed by an optical microscope two day after the substitution of MDI medium.

[2] = system: target genes of PPARα (CD36, ACO, CPT-1); assay: Expression of target genes of PPARα in liver tissue of obesity/diabetes mouse model; format: in vivo; conditions: 5, 10 and 25 mg/kg oral, 14 days, db/db mice, p<0.05 vs control
Experimental: Liver tissue was removed from the test groups and the controls treated by oral administration in Examples 5˜8. The liver tissue was homogenized in liquid nitrogen and the total RNA was isolated from the tissues by using TRIZOL (Invitrogen, USA). The total RNA isolated as described above was determined and cDNA was synthesized by using reverse transcriptase at 42° C. for 20 minutes with same amount of RNA. The cDNA was subjected to RT-PCR by repeating 30 cycles of 95° C./1 minute, 56° C./30 seconds and 72° C./2 minutes with the following primers and Taq polymerase: primers for CD36 amplification (SEQ ID NO: 5 and SEQ ID NO: 6), primers for ACO amplification (SEQ ID NO: 11 and SEQ ID NO: 12), and primers for CPT-1 amplification (SEQ ID NO: 7 and SEQ ID NO: 8). Expression of the genes was determined by real-time PCR.

[3] = system: obesity/diabetes mice (db/db mice); assay: Effect upon fatty liver in obesity/diabetes mouse model; format: in vivo; conditions: 25 mg/kg oral, 14 days
Experimental: To investigate effects of macelignan upon the prevention and treatment of fatty liver, seven mice of 10 week-aged obesity/diabetes mice (db/db mice) were used per test group. To the test groups, macelignan suspended in 0.25% carboxymethyl cellulose was orally administered in an administration dose of 5 mg/kg (body weight), 10 mg/kg (body weight) and 25 mg/kg (body weight), once per day at a predetermined time, for 14 days in all. As a control, 0.25% carboxymethyl cellulose was orally administered alone to normal mice in the same dose as administered to the test group. As another control, 0.25% carboxymethyl cellulose was orally administered alone to obesity/diabetes mice in the same dose as administered to the test group. As still another control, 10 mg/kg (body weight) of troglitazone was orally administered. Fourteen days after the oral administration, the liver tissue was isolated and crushed to extract the total lipid and fat contents, and then the triglyceride content accumulated in the liver tissue was measured.

Oral toxicity test = conditions: rat, in vivo; oral administration, rats; read-out: lethal dose 50% (LD50)
[4] = system: obesity/diabetes mice (db/db mice); assay: Anti-diabetes effect in obesity/diabetes mouse model; format: in vivo; conditions: for OGTT blood sugar: 12th day; for blood sugar level: 14 days; for blood sugar level / Adiponectin concentration in blood / Insulin concentration in blood: db/db mice; for Adiponectin concentration in blood / Insulin concentration in blood: 14th day
Description: A mouse (db/db mouse; The Jackson Laboratory, USA) used in the present invention as an obesity/diabetes model is deficient in leptin genes and cannot control its appetite, and thus takes an excessive amount of food continuously. […] Thus, it can be a typical model of obesity and metabolic diseases. Additionally, it has a higher blood sugar level and can be a typical model of non-insulin-dependent diabetes mellitus. To investigate the effect of preventing and treating diabetes of macelignan, seven mice of 10 week-aged obesity/diabetes mice (db/db mice) were used per test group. To the test groups, macelignan suspended in 0.25% carboxymethyl cellulose was orally administered with the dose of 5 mg/kg (body weight), 10 mg/kg (body weight) and 25 mg/kg (body weight), once per day at a predetermined time, for 14 days. As a control, 0.25% carboxymethyl cellulose was orally administered alone to normal mice in the same dose as administered to the test group. As another control, 0.25% carboxymethyl cellulose was orally administered alone to obesity/diabetes mice in the same dose as administered to the test group. As still another control, 10 mg/kg (body weight) of troglitazone was orally administered. Blood sugar levels of the obesity/diabetes mice were determined from six days before the administration, once per three days. On the 12th day after the oral administration, the test group and the controls were subjected to the Oral Glucose Tolerance Test (OGTT). For this test, obesity/diabetes mice in the test group and the controls were fasted for at least 18 hours, glucose was orally administered to the mice in a dose of 3 g/kg (body weight), and then variations in the blood sugar were measured at 0 minutes, 30 minutes, 60 minutes and 120 minutes after the glucose administration. Additionally, on the 14th day of the oral administration, the final blood sugar level, insulin content in blood (mouse insulin ELISA Kit, Linco Research, o. EZRMI-BK, USA) and adiponectin content in blood (Adiponectin Quantikine ELISA Kit, R&D systems, No. MRP300, USA) were analyzed.

Question: Which adipocyte differentiation [1] does the source give for `COc1cc(C[C@H](C)[C@H](C)Cc2ccc3c(c2)OCO3)ccc1O` (single isomer, unassigned) [macelignan] here?
Answer: adipocyte differentiation was stimulated

Question: And the “mRNA expression of CD36, ACO and CPT-1 in liver tissue” value [2]?
Answer: significantly increased

Question: What about the “triglyceride content in the liver tissue” value [3] of the same compound?
Answer: 6.30 ± 11.59 mg/g

Question: What about the LD50 (Oral toxicity test) of the same compound?
Answer: ≥ 2000 mg/kg

Question: And the OGTT blood sugar ([4]; 0 min. after glucose 3 g/kg, 5 mg/kg oral)?
Answer: 379.14 ± 26.23 mg/dL

Question: And the OGTT blood sugar ([4]; 0 min. after glucose 3 g/kg, 10 mg/kg oral)?
Answer: 313.86 ± 51.40 mg/dL

Question: And the OGTT blood sugar ([4]; 0 min. after glucose 3 g/kg, 25 mg/kg oral)?
Answer: 319.14 ± 35.25 mg/dL

Question: What about the blood sugar level ([4]; 5 mg/kg oral once per day) of the same compound?
Answer: 552.84 ± 47.95 mg/dL

Question: And the “Adiponectin concentration in blood” value ([4]; 5 mg/kg oral)?
Answer: 5111.14 ± 925.88 ng/mL

Question: What about the “Insulin concentration in blood” value ([4]; 5 mg/kg oral) of the same compound?
Answer: 26.33 ± 10.78 ng/mL

Question: What about the blood sugar level ([4]; 10 mg/kg oral once per day) of the same compound?
Answer: 501.03 ± 43.67 mg/dL

Question: What about the “Adiponectin concentration in blood” value ([4]; 10 mg/kg oral) of the same compound?
Answer: 6882.86 ± 250.05 ng/mL

Question: And the “Insulin concentration in blood” value ([4]; 10 mg/kg oral)?
Answer: 16.66 ± 7.03 ng/mL

Question: What about the blood sugar level ([4]; 25 mg/kg oral once per day) of the same compound?
Answer: 412.74 ± 31.15 mg/dL

Question: What about the “Adiponectin concentration in blood” value ([4]; 25 mg/kg oral) of the same compound?
Answer: 7864.00 ± 808.21 ng/mL

Question: And the “Insulin concentration in blood” value ([4]; 25 mg/kg oral)?
Answer: 8.51 ± 3.67 ng/mL

Question: What about the OGTT blood sugar ([4]; 30 mins. after glucose 3 g/kg, 5 mg/kg oral) of the same compound?
Answer: 636.85 ± 63.29 mg/dL

Question: What about the OGTT blood sugar ([4]; 30 mins. after glucose 3 g/kg, 10 mg/kg oral) of the same compound?
Answer: 670.14 ± 94.20 mg/dL

Question: And the OGTT blood sugar ([4]; 30 mins. after glucose 3 g/kg, 25 mg/kg oral)?
Answer: 580.00 ± 101.37 mg/dL

Question: And the OGTT blood sugar ([4]; 60 mins. after glucose 3 g/kg, 5 mg/kg oral)?
Answer: 613.38 ± 24.36 mg/dL

Question: And the OGTT blood sugar ([4]; 60 mins. after glucose 3 g/kg, 10 mg/kg oral)?
Answer: 593.11 ± 27.15 mg/dL

Question: What about the OGTT blood sugar ([4]; 60 mins. after glucose 3 g/kg, 25 mg/kg oral) of the same compound?
Answer: 509.70 ± 27.71 mg/dL

Question: What about the OGTT blood sugar ([4]; 120 mins. after glucose 3 g/kg, 5 mg/kg oral) of the same compound?
Answer: 564.21 ± 29.86 mg/dL

Question: And the OGTT blood sugar ([4]; 120 mins. after glucose 3 g/kg, 10 mg/kg oral)?
Answer: 529.46 ± 17.55 mg/dL

Question: And the OGTT blood sugar ([4]; 120 mins. after glucose 3 g/kg, 25 mg/kg oral)?
Answer: 431.21 ± 59.18 mg/dL
